The test has as its target T1, TXA2 synthetase (Homo sapiens, UniProt P24557).
T1 construct: human platelet microsomes (HPM); from tissue; host or cells: human platelet microsomes
T1 sequence (P24557 1-533): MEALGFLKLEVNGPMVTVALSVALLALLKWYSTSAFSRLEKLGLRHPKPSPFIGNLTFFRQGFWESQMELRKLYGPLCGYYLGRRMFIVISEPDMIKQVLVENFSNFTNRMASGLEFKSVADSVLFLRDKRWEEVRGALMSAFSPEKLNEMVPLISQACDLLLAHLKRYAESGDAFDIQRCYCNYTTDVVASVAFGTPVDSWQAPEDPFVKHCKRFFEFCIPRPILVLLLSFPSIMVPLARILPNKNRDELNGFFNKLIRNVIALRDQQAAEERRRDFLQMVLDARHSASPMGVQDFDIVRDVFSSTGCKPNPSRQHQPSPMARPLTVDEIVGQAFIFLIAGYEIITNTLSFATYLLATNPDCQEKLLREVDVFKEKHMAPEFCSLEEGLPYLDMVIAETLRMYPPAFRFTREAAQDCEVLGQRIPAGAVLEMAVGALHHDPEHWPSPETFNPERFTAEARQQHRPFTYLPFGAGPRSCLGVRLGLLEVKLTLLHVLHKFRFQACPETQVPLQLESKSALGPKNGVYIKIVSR
The test can be described thus: TXA2 inhibition test: TXA2 generated from PGH2 with human platelet microsomes, measured by the response of superfused rabbit aortic strips. The following applies: test compound added to human platelet microsomes 5 minutes before mixing with PGH2; rabbit aorta response; read-out: approximate ED50 (inhibiting TXA2 formation) (converted). It counts as biochemical. The procedure:
The compounds of the present invention were tested for TXA2 inhibition as follows:
Rabbit aortic strips were superfused in series with Krebs solution. Thromboxane A2 (TXA2) was generated by mixing prostaglandin H2 (PGH2) with human platelet microsomes (HPM).
Potential inhibitors were tested by comparing the response of the rabbit aorta to the amount of TXA2 produced by mixing PGH2 and HPM without the test compound in the reaction medium and then the amount of TXA2 produced when the test compound was added to the HPM 5 minutes before the HPM was mixed with PGH2. […] For a discussion of TXA2 synthetase inhibition testing see, e.g., R. Gorman, supra.

Each structure is given as a SMILES string.

As to `O=C(O)c1cc2cc(Cc3cccnc3)ccc2s1` [Example 7, 5-(3-pyridinylmethyl)benzo[b]thiophene-2-carboxylic acid], the IC50 is around 3.71 nM.
